Assay results as given in ChEMBL document CHEMBL1131730, “Isolation and characterization of an active-site peptide from a sterol methyl transferase with a mechanism-based inhibitor” (Bioorg Med Chem Lett, 1999).

Assays:
[1] = (§1) Rate of inactivation of sterol methyl transferase from Saccharomyces cerevisiae using mechanism based inhibitor
Saccharomyces cerevisiae = test: as §1; assay type: organism-based; details: in vivo

## CC(C)C(C)CC[C@@H](C)C1CCC2C3=C(CCC21C)C1(C)CCC(O)CC1CC3 (some centres not stated)
[1]
  Ki: 1100 nM
Saccharomyces cerevisiae
  Ki inact: 1.52 min⁻¹
